Where two headings read alike, the source gives them in different places.
Columns and labels:
[1] = Tissue distribution study in minipigs after intravenous administration; assay type: in vivo, Yucatan minipigs; conditions: minipig; for T/P Ratio Kidney/Plasma / T/P Ratio Liver/Plasma / Kp at 2 h / concentration at 2 h: 2 h after intravenous administration of 12.5 mg/kg; for T/P Ratio Kidney/Plasma / T/P Ratio Liver/Plasma / Kp at 2 h: 12.5 mg/kg; for Kp at 2 h / concentration at 2 h: Yucatan; for Kp at 2 h: iv
Procedure: A tissue distribution study was conducted involving intravenous injection of minipigs with 3′-SL and 6′-SL at a dose of 12.5 mg/kg. Kidney, liver, and blood samples were collected. The tissue to plasma (T/P) ratio was also calculated from the concentrations of 3′-SL and 6′-SL in the kidney, liver, and plasma, from the same minipigs at the same time points.
The tissue distribution of 3′-SL and 6′-SL in Yucatan minipigs was assessed following intravenous administration at a dose of 12.5 mg/kg. The animal experiments were performed in compliance with the Animal Welfare Act and Guide for the Care and Use of Laboratory Animals of Institute for Laboratory Animal Research (ILAR). The animals were kept in a single cage at constant room temperature (23 ± 3 °C) and 30–70% humidity under a regular 12-h light/12-h dark cycle. Animals were provided with approximately 25 g/kg/day food and water was freely available.
Two minipigs were sacrificed at 2 h after administration; liver and kidney tissues, and blood from the jugular vein, were then collected. Each tissue was immediately removed and washed with normal saline, blotted dry with a paper towel, cut into pieces with scissors, and individually homogenized with three volumes of normal saline (v/w) in an Ultra-Turrax apparatus (IKA Works, Wilmington, NC, USA). After blood collection into K2-EDTA tubes, blood samples were gently mixed and placed on crushed wet-ice/Kryorack (Streck Laboratories, Omaha, NE, USA). Following centrifugation at 20,740 × g for 3 min at 4 °C for separation of plasma, the plasma was transferred into labeled polypropylene tubes.
The collected tissues were analyzed using the method developed in this study, and the plasma was analyzed by the method described in our previous study (in press).

[2] = Biological sample stability: benchtop (room temperature 4 h) and long-term (-80 °C, 34 days); assay type: physicochemical, minipig; conditions: for Benchtop and long-term stability, RE (%): -80 °C 34 days then room temperature 4 h, n = 3; for Benchtop and long-term stability values (RE), range: all QC samples of 3′-SL and 6′-SL pooled
Procedure: (§1) Benchtop and long-term stability were evaluated simultaneously. The benchtop stability test was carried out at room temperature (24 °C) for 4 h using samples with long-term stability, i.e., those stored at −80 °C for 34 days. […] The post-preparative stability (RE) of samples after 21 h of storage at 10 °C in an autosampler tray ranged from –3.1% to 8.7% for liver QC samples and −10.2% to 4.7% for kidney QC samples of 3′-SL and 6′-SL. To investigate freeze/thaw stability, QC samples were frozen at −80 °C and thawed at room temperature over four cycles. The stability of all QC samples of 3′-SL and 6′-SL ranged from −6.7% to 7.6% for the liver and −9.3% to −3.2% for the kidney. All stability results satisfied the acceptance criterion of ±15% of the nominal concentration.
(§2) The biological samples were evaluated for benchtop, freeze/thaw, post-preparative, and long-term stability. The stability tests were performed by measuring LQC and HQC samples with three replicates. The background concentration of SL in the blank authentic tissues was set to the nominal LQC concentration in the stability test. As the background concentration of SL in the authentic matrix is similar to or higher than the LQC (60 ng/g), the deviation of the background concentration of SL markedly affects the accuracy of LQC. The background concentration of the blank samples was determined on initiation of the stability test. The HQC samples were prepared by adding a standard solution to the authentic matrix, and the results were calculated by subtracting the endogenous concentration in the blank matrix. Benchtop and long-term stability were evaluated simultaneously with the benchtop stability test carried out at room temperature (approximately 24 °C) for 4 h using samples with long-term stability (stored at −80 °C for 34 days). The post-preparative stability was assessed at 10 °C on an autosampler tray for 21 h. The freeze/thaw stability was evaluated by four cycles of freezing at −80 °C and thawing at room temperature.

[3] = Biological sample stability: post-preparative, autosampler tray; assay type: physicochemical, minipig; conditions: for Post-preparative stability (RE), range: 21 h at 10 °C; for Post-preparative stability, RE (%): 10 °C for 21 h, n = 3
Procedure: as §1, §2

[4] = Biological sample stability: freeze/thaw, four cycles; assay type: physicochemical, minipig; conditions: for Freeze/thaw stability, RE (%): four cycles -80 °C/room temperature, n = 3; for Freeze/thaw stability (RE), range: all QC samples of 3′-SL and 6′-SL pooled, four cycles
Procedure: as §1, §2

[5] = kidney / plasma, read-out: T/P Ratio Kidney/Plasma
[6] = liver / plasma, read-out: T/P Ratio Liver/Plasma
[7] = kidney, read-out: Tissue Concentration Kidney
[8] = liver, read-out: Tissue Concentration Liver
[9] = plasma, read-out: Tissue Concentration Plasma
[10] = kidney, LQC (nominal = background concentration)
[11] = liver, LQC (nominal = background concentration)
[12] = kidney QC samples of 3′-SL and 6′-SL pooled
[13] = liver QC samples of 3′-SL and 6′-SL pooled

T/P Ratio Kidney/Plasma [1]	T/P Ratio Liver/Plasma [1]	Kp at 2 h [1, 5]	Kp at 2 h [1, 6]	concentration at 2 h [1, 7] [ng/g]	concentration at 2 h [1, 8] [ng/g]	concentration at 2 h [1, 9] [ng/g]	Benchtop and long-term stability, RE (%) ([2]; kidney, HQC 15,000 ng/g)	Benchtop and long-term stability, RE (%) [2, 10] [%]	Benchtop and long-term stability values (RE), range ([2]; kidney)	Benchtop and long-term stability, RE (%) ([2]; liver, HQC 15,000 ng/g)	Benchtop and long-term stability, RE (%) [2, 11] [%]	Benchtop and long-term stability values (RE), range ([2]; liver)	Post-preparative stability (RE), range [3, 12]	Post-preparative stability, RE (%) ([3]; kidney, HQC 15,000 ng/g)	Post-preparative stability, RE (%) [3, 10] [%]	Post-preparative stability (RE), range [3, 13]	Post-preparative stability, RE (%) ([3]; liver, HQC 15,000 ng/g)	Post-preparative stability, RE (%) [3, 11] [%]	Freeze/thaw stability, RE (%) ([4]; kidney, HQC 15,000 ng/g)	SMILES	other results
1.0	0.12	1 to 1.3	0.12 to 0.14	22300	2550	21500	−6.0	−9.2	−10.1% to −6.0	−5.3	−7.6	−7.6% to 3.7	−10.2% to 4.7	−3.3	−10.2	–3.1% to 8.7	−2.7	−1.3	−8.0	CC(=O)N[C@H]1[C@H]([C@H](O)[C@H](O)CO)O[C@@](O[C@H]2[C@@H](O)[C@@H](CO)O[C@@H](O[C@H]3[C@H](O)[C@@H](O)[C@H](O)O[C@@H]3CO)[C@@H]2O)(C(=O)O)C[C@@H]1O [3′-SL, 3′-sialyllactose]	Freeze/thaw stability, RE (%) [4, 10]: −3.2%; Freeze/thaw stability (RE), range ([4]; kidney): −9.3% to −3.2; Freeze/thaw stability, RE (%) ([4]; liver, HQC 15,000 ng/g): −6.7%; Freeze/thaw stability, RE (%) [4, 11]: −5.8%; Freeze/thaw stability (RE), range ([4]; liver): −6.7% to 7.6
1.3	0.14	1 to 1.3	0.12 to 0.14	27000	3030	21000	−6.7	−10.1	−10.1% to −6.0	−3.3	3.7	−7.6% to 3.7	−10.2% to 4.7	4.7	0.5	–3.1% to 8.7	8.7	−3.1	−9.3	CC(=O)NC1C(O)CC(OCC2OC(OC3C(CO)OC(O)C(O)C3O)C(O)C(O)C2O)(C(=O)O)OC1C(O)C(O)CO (stereo not drawn) [6′-SL, 6′-sialyllactose]	Exposure of tissues to 6′-SL higher than that of 3′-SL ([1]; liver and kidney, 2 h after i.v. 12.5 mg/kg): approximately 20%; Freeze/thaw stability, RE (%) [4, 10]: −6.8%; Freeze/thaw stability (RE), range ([4]; kidney): −9.3% to −3.2; Freeze/thaw stability, RE (%) ([4]; liver, HQC 15,000 ng/g): −5.3%; Freeze/thaw stability, RE (%) [4, 11]: 7.6%; Freeze/thaw stability (RE), range ([4]; liver): −6.7% to 7.6
